Among the data in patent US9688645B2, “Macrocyclic urea and sulfamide derivatives as inhibitors of TAFIa” (SANOFI, priority 2008, dated 2017) are ring closure, yield of all isomers and IC50 values, retold here.

Structures are written as SMILES. Read-outs that look alike come from different tables or passages of the source.

Broadly, the IC50 is the concentration needed to halve the response being measured.

The conditions of data set [1]: rcm bond, dichloromethane.
A further data set concerns the target TAFIa (Homo sapiens (Human), UniProt Q96IY4). The data set can be described thus: TAFIa inhibition, Actichrome plasma TAFI Activity Kit (American Diagnostica). The class given is biochemical. The settings on record: chromogenic read-out at 420 nm, 15 min preincubation at room temperature, pH 7.4, duplicate determination. As to the method:
The prepared substances were tested for TAFIa inhibition using the Actichrome plasma TAFI Activity Kit from American Diagnostica (Pr. No. 874). This entailed adding 28 μl of assay buffer (20 mM Hepes, 150 mM NaCl, pH 7.4) and 10 μl of TAFIa (American Diagnostica Pr. No. 874TAFIA; 2.5 μg/ml) to 2 μl of 2.5 mM DMSO solution of the substance and incubating in a 96 half-well microtiter plate at room temperature for 15 minutes. The enzyme reaction was started by adding 10 μl of TAFIa developer (prediluted 1:2 with assay buffer). The time course of the reaction was followed at 420 nm in a microtiter plate reader (SpectraMax plus 384; Molecular Devices) for 15 minutes.
The IC50 values were calculated from the averaged values (duplicate determination) of serial dilutions of the substance with the aid of the Softmax Pro software (version 4.8; Molecular Devices).

TAFIa, sequence (Q96IY4 115-423): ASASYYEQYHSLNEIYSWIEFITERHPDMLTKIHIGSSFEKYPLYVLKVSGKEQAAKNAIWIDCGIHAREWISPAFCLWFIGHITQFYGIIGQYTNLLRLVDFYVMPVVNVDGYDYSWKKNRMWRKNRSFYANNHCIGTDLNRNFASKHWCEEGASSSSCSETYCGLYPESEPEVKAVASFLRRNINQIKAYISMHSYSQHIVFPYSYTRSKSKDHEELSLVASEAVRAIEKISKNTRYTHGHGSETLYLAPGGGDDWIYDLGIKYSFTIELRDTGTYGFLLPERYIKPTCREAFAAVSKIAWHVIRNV

Compound `CC(C)[C@H]1COCC=CCn2cnc(c2)C[C@@H](NC(=O)OCc2ccccc2)C(=O)N1` came in with a ring closure, yield of all isomers in data set [1] (from C=CCOC[C@@H](NC(=O)[C@@H](Cc1cn(CC=C)cn1)NC(=O)OCc1ccccc1)C(C)C, benzylidene[1,3-bis(2,4,6-trimethylphenyl)-2-imidazolidinylidene]dichloro(tricyclohexylphosphine)ruthenium (Grubbs II catalyst), 4.38 mM, 25.0 °C) of 73.3%. Turning to `Nc1ccc(C[C@H](NC(=O)N[C@@H]2Cc3ccc(cc3)OCCCCOC[C@H](C3CC3)NC2=O)C(=O)O)cn1` [Example 5-3, (S)-3-(6-Aminopyridin-3-yl)-2-[3-((9S,12R)-9-cyclopropyl-11-oxo-2,7-dioxa-10-azabicyclo[12.2.2]octadeca-1(17),14(18), 15-trien-12-yl)ureido]propionic acid], the IC50 on TAFIa was found to be 32 nM. On the same count and under the same terms, next, `NCCCC[C@H](NC(=O)N[C@@H]1Cc2ccc(cc2)OCCCCOC[C@H](c2ccccc2)NC1=O)C(=O)O` [Example 1-4, (S)-6-Amino-2-[3-((9S,12R)-11-oxo-9-phenyl-2,7-dioxa-10-azabicyclo[12.2.2]octadeca-1(17),14(18),15-trien-12-yl)ureido]hexanoic acid]: 71 nM; `CC(C)[C@H]1COCCCCOc2ccc(cc2)C[C@@H](NC(=O)N[C@@H](Cc2ccc(N)nc2)C(=O)O)C(=O)N1` [Example 5-2, (S)-3-(6-Aminopyridin-3-yl)-2-[3-((9S,12R)-9-isopropyl-11-oxo-2,7-dioxa-10-azabicyclo[12.2.2]octadeca-1(17),14(18), 15-trien-12-yl)ureido]propionic acid]: 9 nM; `C[C@H]1COCCCCOc2ccc(cc2)C[C@@H](NC(=O)N[C@@H](CCCCN)C(=O)O)C(=O)N1` [Example 1-8, (S)-6-Amino-2-[3-((9S,12R)-9-methyl-11-oxo-2,7-dioxa-10-azabicyclo[12.2.2]octadeca-1(17),14(18),15-trien-12-yl)ureido]hexanoic acid]: 29 nM.

On to `CC(C)[C@H]1COCCCCOC[C@@H](NC(=O)N[C@@H](Cc2ccc(N)nc2)C(=O)O)C(=O)N1` [Example 6-4, (S)-3-(6-Aminopyridin-3-yl)-2-[3-((3S,6R)-3-isopropyl-5-oxo-1,8-dioxa-4-azacyclododec-6-yl)ureido]propionic acid], for which the IC50 at TAFIa is 55 nM. In the case of `NCCCC[C@H](NC(=O)N[C@@H]1Cc2ccc(cc2)OCCCCOC[C@H](C2CCCCC2)NC1=O)C(=O)O` [Example 1-6, (S)-6-Amino-2-[3-((9S,12R)-9-cyclohexyl-11-oxo-2,7-dioxa-10-azabicyclo[12.2.2]octadeca-1(17),14(18),15-trien-12-yl)ureido]hexanoic acid], the IC50 at TAFIa came to 811 nM. For the compound `CC(C)[C@H]1COCCCCn2cnc(c2)C[C@@H](NC(=O)N[C@@H](Cc2ccc(N)nc2)C(=O)O)C(=O)N1` [Example 6-1, (S)-3-(6-Aminopyridin-3-yl)-2-[3-((8S,11R)-8-isopropyl-10-oxo-6-oxa-1,9,14-triazabicyclo[11.2.1]hexadeca-13(16),14-dien-11-yl)ureido]propionic acid], the IC50 on TAFIa worked out at 52 nM. As for `CC(C)[C@H]1COCCCCOc2ccc(cc2)C[C@@H](NC(=O)N[C@@H](CCCCN)C(=O)O)C(=O)N1` [Example 1-1, (S)-6-Amino-2-[3-((9S,12R)-9-isopropyl-11-oxo-2,7-dioxa-10-azabicyclo[12.2.2]octadeca-1(17),14(18),15-trien-12-yl)ureido]hexanoic acid], the IC50 on TAFIa was found to be 6 nM.

For the compound `CC(C)[C@H]1COCC(O)C(O)COc2ccc(cc2)C[C@@H](NC(=O)N[C@@H](CCCCN)C(=O)O)C(=O)N1` (stereo partly drawn) [Example 8-1, (S)-6-Amino-2-[3-((9S,12R)-4,5-dihydroxy-9-isopropyl-11-oxo-2,7-dioxa-10-azabicyclo[12.2.2]octadeca-1(17),14(18),15-trien-12-yl)ureido]hexanoic acid], the IC50 on TAFIa was 23 nM. `CC(C)[C@H]1COCCCCOc2ccc(cc2F)C[C@@H](NC(=O)N[C@@H](Cc2ccc(N)nc2)C(=O)O)C(=O)N1` [Example 6-3, (S)-3-(6-Aminopyridin-3-yl)-2-[3-((9S,12R)-16-fluoro-9-isopropyl-11-oxo-2,7-dioxa-10-azabicyclo[12.2.2]octadeca-1(17),14(18), 15-trien-12-yl)ureido]propionic acid]: on TAFIa, the IC50 is 12 nM.

In data set [1] (from C=CCOC[C@@H](NC(=O)[C@@H](Cc1ccc(OCC=C)cc1)NC(=O)OCC1c2ccccc2-c2ccccc21)C(C)C, dichloro(o-isopropoxyphenylmethylene)(tricyclohexylphosphine)ruthenium (Hoveyda-Grubbs catalyst), 3.61 mM, 40.0 °C, 24.0 h), `CC(C)[C@H]1COCC=CCOc2ccc(cc2)C[C@@H](NC(=O)OCC2c3ccccc3-c3ccccc32)C(=O)N1` had a ring closure, yield of all isomers of 86.6%. For the compound `CC(C)[C@H]1COCC(O)C(O)COc2ccc(cc2)C[C@@H](NC(=O)NC(Cc2ccc(N)nc2)C(=O)O)C(=O)N1` (stereo partly drawn) [Example 8-3, 3-(6-Aminopyridin-3-yl)-2-[3-((9S,12R)-4,5-dihydroxy-9-isopropyl-11-oxo-2,7-dioxa-10-azabicyclo[12.2.2]octadeca-1(17),14(18), 15-trien-12-yl)ureido]propionic acid], the IC50 on TAFIa came out at 59 nM. For the compound `CC(C)[C@H]1COCCCCCC=CCOc2ccc(cc2)C[C@@H](NC(=O)OCC2c3ccccc3-c3ccccc32)C(=O)N1`, in data set [1] (from C=CCCCCCOC[C@@H](NC(=O)[C@@H](Cc1ccc(OCC=C)cc1)NC(=O)OCC1c2ccccc2-c2ccccc21)C(C)C, dichloro(o-isopropoxyphenylmethylene)(tricyclohexylphosphine)ruthenium (Hoveyda-Grubbs catalyst), 3.5 mM, 40.0 °C, 24.0 h), the ring closure, yield of all isomers amounted to 90.4%.

In the case of `CC1(C)COCCCCOc2ccc(cc2)C[C@@H](NC(=O)N[C@@H](CCCCN)C(=O)O)C(=O)N1` [Example 1-3, (S)-6-Amino-2-[3-((R)-9,9-dimethyl-11-oxo-2,7-dioxa-10-azabicyclo[12.2.2]octadeca-1(17),14(18),15-trien-12-yl)ureido]hexanoic acid], the IC50 at TAFIa is 269 nM.
